Values joined by “and” are separate entries in the source; they are usually repeats but may differ in a detail not shown here. Identical values can stand only once.
Tests used:
[1] = system: aspirin-induced gastric lesions; assay: animal or person; assay type: in vivo, Male Sprague-Dawley rats; settings: for inhibition in vivo at 125 mg/kg: Rattus norvegicus, po, 2 h, purine derivative dose 125 mg/kg with 125 mg/kg aspirin, read-out: % Reduction in Lesions; for reduction in lesions / lesion reduction: both 125 mg/kg; for minimization of gastric damage (statement in words): general statement in the description, high dosage = anti-inflammatory:purine ratios from about 1:1.5 to about 1:4
Protocol: For these experiments, the test materials were suspended in 0.5% methyl cellulose aqueous solutions. The pH of the aspirin solution was 2.7 and the pH of the solutions containing the purine materials was adjusted to pH 2.7 using HC1.
Male Sprague-Dawley rats were obtained (approximate weight = 150 grams each) and allowed to acclimate for at least 4 days. During this period the animals were allowed Purina Rat Chow and,tap water ad libitum. The animals were food fasted about 18 hours prior to dosing; during this period water was provided ad libitum.
The rats were dosed by oral gavage using a #8 catheter attached to a 1 cc syringe. The animals were dosed and sacrificed according to a predetermined schedule (the dosing order was determined at random prior to starting each experiment). After dosing, the animals were also water fasted.
The rats were sacrificed, either by C02 inhalation or cervical dislocation, two hours after dosing. Their stomachs were removed intact and placed on plastic-backed absorbent paper. The stomachs were then opened along the greater curvature, the fundus and esophagus were removed and the stomach was spread over a piece of white cardboard, using cotton-tipped applicators to level the rugae. The stomachs were then examined, using a dissecting microscope at 7X magnification, and the length of each lesion present was determined using a calibrated reticule.
In this table, N indicates the number of rats tested for the stated dosage.
In other experiments aspirin and adenosine were dosed at separate times.

[2] = system: aspirin-induced gastric damage; assay: Aspirin-induced gastric lesions in rats, adenosine injected i.p. 15 minutes prior to oral aspirin; assay type: in vivo; settings: 125 mg/kg aspirin (p.o.) alone
Protocol: Parenteral administration of adenosine was also found to be protective against aspirin-induced gastric damage, as illustrated by the following experiment.
Rats, chosen and prepared as. above, were dosed with i.p. injections of adenosine in 0.9% sterile physiological saline solution, adjusted to pH 7 with IN NaOH. The adenosine solution was injected 15 minutes prior to an oral dose of 125 mg/kg aspirin.

[3] = system: Aspirin-induced damage in dogs; assay: Aspirin-induced gastric damage in dogs, endoscopy; assay type: in vivo, male beagles; settings: avg. dose aspirin 97.8-101 mg/kg, adenosine 100 mg/kg simultaneously, cimetidine 30 mg/kg about 1 hour before
Protocol: Fasted male beagles were orally dosed with tablets of aspirin, aspirin plus adenosine, or aspirin plus cimetidine. The aspirin and adenosine were dosed simultaneously. The cimetidine was dosed approximately 1 hour before the aspirin; the dose level of cimetidine was 5 times that needed to give a 90% reduction in acid secretion. Approximately 19 hours later, the dogs were again dosed and 4 hours later their stomachs were examined by endoscopy. The incidence of erosions was recorded and the overall gastric damage assessed subjectively, using an arbitrary grading scale.

[4] = system: occult blood loss from the G.I. tract; assay: Occult blood loss from the G.I. tract of rats (Fe labeled ferrous citrate, 24 h feces collection); assay type: in vivo, male Sprague-Dawley rats; settings: Adenosine 0, oral
Protocol: In addition to reducing macroscopic lesions in the stomach produced by aspirin ingestion, adenosine was also found to reduce occult blood loss from the G.I. tract of rats. In these experiments, male Sprague-Dawley rats were injected i.v. with […] Fe labeled ferrous citrate. Eight days after injection, feces were collected for 24 hours to establish base line data. The rats were then dosed orally with aspirin or aspirin-adenosine mixtures, as suspensions in 0.5% methylcellulose, and the feces were again collected for 24 hours. The rats were fasted during the 24-hour pre- dose period and for 2 hours after drug dosing.

[5] = Toxicity (statement only, no method given); settings: no data given

| Structure (SMILES) | inhibition in vivo at 125 mg/kg ([1]; vs aspirin-alone control) | minimization of gastric damage (statement in words) [1] | further results |
| --- | --- | --- | --- |
| Nc1c2ncn([C@@H]3O[C@H](CO)[C@@H](O)[C@H]3O)c2nc[n+]1[O-] [Adenosine-N^1-oxide, adenosine-N^1-oxide] | 75% |  |  |
| O=c1[nH]cnc2nc[nH]c12 [Hypoxanthine] | 13% |  |  |
| CC(=O)Oc1ccccc1C(=O)O [Aspirin, acetylsalicylic acid] |  |  | Average Lesion Length (mm) ±SEM [2]: 36.1 ±10.8 mm; Lesion Length (mm) ± SEM ([1]; 125 mg/kg aspirin alone (control), oral, 2 h after dosing): 30.4 ±3.1 mm; Avg. Damage Grade ([3]; arbitrary subjective grading scale): 16; Avg. In-cidence of Erosions ([3]; oral tablets, two doses about 19 h apart, endoscopy 4 h after second): 80%; Blood Loss in 24 hrs. (µl) + S.D. ([4]; Aspirin 125 mg/kg): 158 ± 46 µL; Blood Loss in 24 hrs. (µl) + S.D. ([4]; Aspirin 300 mg/kg): 198 ± 131 µL and 224 ± 98 µL |
| CSC[C@H]1O[C@@H](n2cnc3c(N)ncnc32)[C@H](O)[C@@H]1O [5'-deoxy-5'-methylthioadenosine] | -102% |  |  |
| Nc1ncnc2c1ncn2[C@@H]1O[C@H](CO)[C@@H](O)[C@H]1O [adenosine] |  |  | reduction in lesions ([1]; adenosine dosed 10 minutes after aspirin): < 10%; lesion reduction ([1]; adenosine dosed 10 minutes prior to aspirin): about 60%; lesion reduction ([1]; adenosine dosed 30 minutes prior to aspirin): about 45%; reduction in lesions ([1]; adenosine dosed simultaneously with aspirin): about 90% |
| Nc1nc2nc[nH]c2c(=O)[nH]1 [guanine] |  | not useful |  |
| Nc1ncnc2nc[nH]c12 [Adenine] | 94% | does work to minimize gastrointestinal damage | toxicity limits (statement in words) [5]: does not fall within the necessary toxicity limits |
| Nc1nc2c(ncn2[C@@H]2O[C@H](CO)[C@@H](O)[C@H]2O)c(=O)[nH]1 [Guanosine] | 41% | not useful |  |
| Cn1cnc2c(ncn2[C@@H]2O[C@H](CO)[C@@H](O)[C@H]2O)c1=N [1-methyl adenosine] |  |  | % Reduction in Lesions ([1]; purine derivative dose 25 mg/kg with 125 mg/kg aspirin, vs aspirin-alone control): 16% |
| Nc1ncnc2c1ncn2[C@H]1C[C@H](O)[C@@H](COP(=O)(O)O)O1 [2'-deoxy-adenosine-5'-mono-phosphate] | 16% |  |  |
| NC(=O)NC1NC(=O)NC1=O (stereo not drawn) [Allantoin] | 30% |  |  |
| OC[C@H]1O[C@@H](n2cnc3c(O)ncnc32)[C@H](O)[C@@H]1O [Inosine] | 18% |  |  |
| OC[C@H]1O[C@@H](n2cnc3c2ncn2ccnc32)[C@H](O)[C@@H]1O [1,N^6-ethenoadenosine] | 50% | work only at relatively high dosage levels |  |
| Nc1ncnc2c1ncn2[C@@H]1O[C@H](CO)C[C@H]1O [3'-deoxyadenosine] | -47% |  |  |
| CC1(C)O[C@@H]2[C@H](O1)[C@@H](CO)O[C@H]2n1cnc2c(N)ncnc21 [2',3'-isopropylidine adenosine] | 95% |  |  |
| Nc1ncnc2c1ncn2[C@@H]1O[C@H](COP(=O)(O)OP(=O)(O)OP(=O)(O)O)[C@@H](O)[C@H]1O [Adenosine-5'-triphosphonate (ATP), adenosine-5'-triphosphate] |  | work only at relatively high dosage levels |  |
| Nc1ncnc2c1nnn2[C@@H]1O[C@H](CO)[C@@H](O)[C@H]1O [8-azaadenosine] | 60% |  |  |
| Nc1ncnc2c1ncn2[C@H]1C[C@H](O)[C@@H](CO)O1 [2'-deoxyadenosine] | 64% |  |  |
| Nc1ncnc2c1ncn2[C@@H]1O[C@H](COP(=O)(O)OP(=O)(O)O)[C@@H](O)[C@H]1O [Adenosine-5'-diphosphate (ADP), adenosine-5'-diphosphate] | 50% | work only at relatively high dosage levels |  |
| Nc1ncnc2c1nc(Br)n2[C@@H]1O[C@H](CO)[C@@H](O)[C@H]1O [8-bromoadenosine] | 76% |  |  |
